Tests used:
Experiment in all cases: relative viability (nuclei count vs DMSO), 5 days (fraction); higher = more cells survive
[1] = test system: A-427
How it was run: (§1)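 Dosing by pin tool came one day after lung cancer cell lines were seeded in 1536-well plates, using either one drug or a fixed anchor-drug dose plus five library-drug doses (not always all listed) in √10 steps. After 5 days, nuclei were counted on 4× images. Relative viability is treated-well nuclei count divided by vehicle-well nuclei count, and values are medians of duplicate plates.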

[2] = test system: HCC-15
How it was run: as §1

[3] = test system: HCC-78
How it was run: as §1

[4] = test system: HOP-62
How it was run: as §1

[5] = test system: LC-2-ad
How it was run: as §1

[6] = test system: LOU-NH91
How it was run: as §1

[7] = test system: LXF-289
How it was run: as §1

[8] = test system: NCI-H1734
How it was run: as §1

[9] = test system: NCI-H1755
How it was run: as §1

[10] = test system: NCI-H1792
How it was run: as §1

[11] = test system: NCI-H1915
How it was run: as §1

[12] = test system: NCI-H1975
How it was run: as §1

## NC(=O)Nc1cc(-c2cccc(F)c2)sc1C(=O)N[C@H]1CCCNC1 [AZD7762] + Cc1nc(Nc2ncc(C(=O)Nc3c(C)cccc3Cl)s2)cc(N2CCN(CCO)CC2)n1 [Dasatinib] (partner 0.075 µM)
[1]; first compound 0.01 µM
  relative viability: 0.83
[1]; first compound 0.03162 µM
  relative viability: 0.669
[1]; first compound 0.1 µM
  relative viability: 0.812
[1]; first compound 0.3162 µM
  relative viability: 0.663
[1]; first compound 1 µM
  relative viability: 0.218
[2]; first compound 0.01 µM
  relative viability: 0.582
[2]; first compound 0.03162 µM
  relative viability: 0.592
[2]; first compound 0.1 µM
  relative viability: 0.592
[2]; first compound 0.3162 µM
  relative viability: 0.561
[2]; first compound 1 µM
  relative viability: 0.52
[3]; first compound 0.01 µM
  relative viability: 0.409
[3]; first compound 0.03162 µM
  relative viability: 0.606
[3]; first compound 0.1 µM
  relative viability: 0.451
[3]; first compound 0.3162 µM
  relative viability: 0.353
[3]; first compound 1 µM
  relative viability: 0.232
[4]; first compound 0.01 µM
  relative viability: 0.727
[4]; first compound 0.03162 µM
  relative viability: 0.72
[4]; first compound 0.1 µM
  relative viability: 0.682
[4]; first compound 0.3162 µM
  relative viability: 0.623
[4]; first compound 1 µM
  relative viability: 0.341
[5]; first compound 0.01 µM
  relative viability: 0.596
[5]; first compound 0.03162 µM
  relative viability: 0.513
[5]; first compound 0.1 µM
  relative viability: 0.374
[5]; first compound 0.3162 µM
  relative viability: 0.343
[5]; first compound 1 µM
  relative viability: 0.377
[6]; first compound 0.01 µM
  relative viability: 0.561
[6]; first compound 0.03162 µM
  relative viability: 0.596
[6]; first compound 0.1 µM
  relative viability: 0.558
[6]; first compound 0.3162 µM
  relative viability: 0.517
[6]; first compound 1 µM
  relative viability: 0.49
[7]; first compound 0.01 µM
  relative viability: 0.225
[7]; first compound 0.03162 µM
  relative viability: 0.245
[7]; first compound 0.1 µM
  relative viability: 0.219
[7]; first compound 0.3162 µM
  relative viability: 0.187
[7]; first compound 1 µM
  relative viability: 0.211
[8]; first compound 0.01 µM
  relative viability: 0.537
[8]; first compound 0.03162 µM
  relative viability: 0.542
[8]; first compound 0.1 µM
  relative viability: 0.493
[8]; first compound 0.3162 µM
  relative viability: 0.394
[8]; first compound 1 µM
  relative viability: 0.35
[9]; first compound 0.01 µM
  relative viability: 0.276
[9]; first compound 0.03162 µM
  relative viability: 0.428
[9]; first compound 0.1 µM
  relative viability: 0.416
[9]; first compound 0.3162 µM
  relative viability: 0.325
[9]; first compound 1 µM
  relative viability: 0.215
[10]; first compound 0.01 µM
  relative viability: 0.814
[10]; first compound 0.03162 µM
  relative viability: 0.861
[10]; first compound 0.1 µM
  relative viability: 0.753
[10]; first compound 0.3162 µM
  relative viability: 0.891
[10]; first compound 1 µM
  relative viability: 0.873
[11]; first compound 0.01 µM
  relative viability: 0.32
[11]; first compound 0.03162 µM
  relative viability: 0.319
[11]; first compound 0.1 µM
  relative viability: 0.327
[11]; first compound 0.3162 µM
  relative viability: 0.335
[11]; first compound 1 µM
  relative viability: 0.272
[12]; first compound 0.01 µM
  relative viability: 0.339
[12]; first compound 0.03162 µM
  relative viability: 0.347
